Source: US4803227A, “Aminoalkyl ethers of phenols as anticancer agents for the breast and colon” (The University of Manitoba, priority 1984, dated 1989)
Structures can show the parent of a compound that is named as a salt. Where two headings read alike, the source gives them in different places. One block for each compound: values may come before it.

Experiments:
[1] = biological target: AEBS (anti-estrogen binding site), MCF-7 microsomes; test: competition with [3H]-tamoxifen for AEBS, MCF-7 microsomes; design: species or system human; conditions: for IC50: read-out: RSBA (M) for AEBS, MCF-7 microsomes
Description: (§1) *Relative specific binding affinity (RSBA) is the concentration of cold
(§2) competitor required to displace 50% of the specifically bound label and
(§3) expresses the affinity of the test compound for the receptor relative to
(§4) that of the labelled specific ligand, in this instance 1.5 ×

[2] = tested on: MCF-7 human breast cancer cells; test: cells; conditions: for IC90: Homo sapiens, MCF7, 168 h, read-out: D10 (concentration required to effect a 90% reduction in the number of MCF7 cells)
Protocol: Concentrations are shown on the x-axis. […] A longer exposure time (10 days) was employed because this cell line is slower growing than the MCF-7 cell line.
In the case of MCF-7 cells, approximately 2×10^4 MCF-7 cells were seeded into duplicate 25 cm tissue culture flasks containing Dulbecco's modified Eagle's medium supplemented with insulin (10 μg/ml), glucose ([…])and 5% dextran coated charcoal-stripped fetal calf serum to which was added increasing concentrations of the compound to be tested. Cells were allowed to grow for 7 days with one change of medium containing the test compound on day 4. […] Total cell number at each concentration was determined by Coulter counter. […] D (that concentration required to elicit a 90% reduction in cell number relative to the control after 7 days of treatment) was determined for each compound.

estrogen receptor (ER) [3] = test: competition with [3H] 17 β-estradiol for ER; type: binding
MCF-7 cells = conditions: 7 days; for reversal of growth inhibition by estradiol: 1×10^-8 M estradiol; for inhibition of growth of MCF-7 cells: tamoxifen 5×10^-7 M, N,N-DPPE 1x-8x tamoxifen concentration
estrogen receptor (ER) [4] = conditions: literature; cited from earlier work
colon carcinoma (3C872) = test: colon tumor test in female rats implanted with colon carcinoma (3C872); type: in vivo; conditions: for Tumor wt % of Controls / Tumor Evaluation (wt. mg): intramuscular, twice daily for 7 days; for Tumor Evaluation (wt. mg): control 2261
Protocol: The rats had been subcutaneously implanted with colon carcinoma (3C872) and were cancerous. […] The wt. of the tumor was measured after the 7-day treatment and reported as a % (average) of the control tumor wt. (average) using 40 control rats.

[5] = tested on: progesterone receptor (PgR) in MCF-7 cells; test: induction of progesterone receptor (PgR) synthesis in MCF-7 cells; type: cell-based, human; conditions: 5 days of pre-incubation, 1×10^-8 M
[6] = biological target: AEBS (anti-estrogen binding site), rat liver microsomes; test: competition with [3H]-tamoxifen for AEBS, rat liver microsomes; conditions: concentration of cold competitor required to displace 50% of specifically bound label, 1.5 × 10^-9 M [3H]-tamoxifen; read-out: RSBA (M) for AEBS, Rat liver microsomes
Description: as §1, §2, §3, §4

[7] = literature; cited from earlier work
[8] = concentration of cold competitor required to displace 50% of specifically bound label, 1.5 × 10^-9 M [3H]-tamoxifen
[9] = microsome preparation not given

RSBA (M) for AEBS, MCF-7 microsomes [1, 8]: No affinity
Compound: C(=C(c1ccccc1)c1ccccc1)c1ccccc1 [Triphenylethylene, triphenylethylene, reference compound]
competition with [3H]-tamoxifen for AEBS ([1]; at all concentrations tested, microsome preparation not given): fails to compete with [^3 H]-tamoxifen for AEBS
cytotoxic effect on MCF-7 cells [2]: no cytotoxic effect on MCF-7 cells after 7 days of exposure
D10 (concentration required to effect a 90% reduction in the number of MCF7 cells) ([2]; 7 days of exposure): No effect
competition with [3H] 17 β-estradiol for ER (estrogen receptor (ER) [3]; at higher concentrations): competes with [^3 H] 17 β-estradiol for ER

IC50 [1, 8]: 7e-07 M
binding to AEBS [1, 9]: bind significantly to AEBS
IC50 [6]: 4e-08 M
IC90 [2]: 16 µM
Compound: CCN(CC)CCOc1ccc(Cc2ccccc2)cc1 [N,N-DPPE, N,N-diethyl-2-[(4-phenylmethyl)phenoxy]ethanamine hydrochloride]
Tumor wt % of Controls (colon carcinoma (3C872); 8.00 mg/kg per injection): 80%
Tumor Evaluation (wt. mg) (colon carcinoma (3C872); 8.00 mg/kg per injection): 1817 mg
Tumor wt % of Controls (colon carcinoma (3C872); 16.00 mg/kg per injection): 99%
Tumor Evaluation (wt. mg) (colon carcinoma (3C872); 16.00 mg/kg per injection): 2259 mg
Tumor wt % of Controls (colon carcinoma (3C872); 32.00 mg/kg per injection): 68%
Tumor Evaluation (wt. mg) (colon carcinoma (3C872); 32.00 mg/kg per injection): 1557 mg
reduction in tumor growth (colon carcinoma (3C872); 32 mg/kg, 7 days): 30%
optimal dosage (colon carcinoma (3C872); 7-day test): 30 to 40 mg/kg
results at higher doses (colon carcinoma (3C872); above 60 mg/kg): results became poorer
reversal of growth inhibition by estradiol (MCF-7 cells): no significant reversal of its effect by estradiol
inhibition of growth of MCF-7 cells (MCF-7 cells; absence of estradiol): significant growth inhibition, but in all cases, less than that for tamoxifen
inhibition of growth of MCF-7 cells (MCF-7 cells; presence of estradiol): significantly (P<0.001) more inhibition than tamoxifen
induction of PgR synthesis above control levels [5]: failure to induce significant syn thesis of progesterone receptor (PgR) above control levels

IC50 [6]: 2e-06 M
IC90 [2]: 48 µM
Compound: CN(C)CCOc1ccccc1Cc1ccccc1 [Phenyltoloxamine, N,N-dimethyl-2[(2-phenylmethyl)phenoxy]ethanamine, reference compound]
anti-histamine effects [7]: pronounced anti-histamine effects
concentrations at which compound becomes significantly cytotoxic for MCF-7 cells ([2]; human, 10080 min): > 100 µM

Further lines, the compound ahead of its results:

Compound: c1ccc(Cc2ccc(OCCN3CCOCC3)cc2)cc1 [MPPE, N-morpholino-2-[(4-phenylmethyl)phenoxy]ethanamine hydrochloride]
IC50 [1, 8]: 6.6e-07 M
binding to AEBS [1, 9]: bind significantly to AEBS
IC90 [2]: 16 µM
binding to ER (estrogen receptor (ER) [3]): only weakly to ER

Compound: CC/C(=C(\c1ccccc1)c1ccc(OCCN(C)C)cc1)c1ccccc1 [Tamoxifen, 1-(p-β-dimethylaminoethoxyphenyl)-trans-1,2-diphenylbut-1-ene, reference compound]
reversal of growth inhibition by estradiol (MCF-7 cells): largely but not completely reversed by the addition of 1×10^-8 M estradiol
inhibition of growth of MCF-7 cells (MCF-7 cells; absence of estradiol): Significant inhibition
competition for the estrogen receptor (estrogen receptor (ER) [4]): compete for the estrogen receptor (ER)
IC90 [2]: 4.8 µM

Compound: CCN(CC)CCOc1ccccc1 [N,N-DPEA, N,N-diethyl-2-phenoxyethylamine hydrochloride, reference compound]
IC50 [1, 8]: 8e-05 M
IC50 [6]: 4e-05 M
IC90 [2]: 1100 µM
